Results as given in PubChem BioAssay (NCI).
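Five concentrations, 48 hours, 96-well plates. At the TGI there is no net growth.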

Tests used:
Test in all cases: growth of human tumour cells (NCI), 48 h
786-0 renal = system: 786-0 renal
A498 renal = system: A498 renal
A549 NSCLC = system: A549 NSCLC
ACHN renal = system: ACHN renal
BT-549 breast = system: BT-549 breast
CAKI-1 renal = system: CAKI-1 renal
CCRF-CEM leukemia = system: CCRF-CEM leukemia
COLO 205 colon = system: COLO 205 colon
DU-145 prostate = system: DU-145 prostate
EKVX NSCLC = system: EKVX NSCLC
HCC-2998 colon = system: HCC-2998 colon
HCT-116 colon = system: HCT-116 colon
HCT-15 colon = system: HCT-15 colon
HL-60(TB) leukemia = system: HL-60(TB) leukemia
HOP-62 NSCLC = system: HOP-62 NSCLC
HOP-92 NSCLC = system: HOP-92 NSCLC
HS 578T breast = system: HS 578T breast
HT29 colon = system: HT29 colon
IGROV1 ovarian = system: IGROV1 ovarian
K-562 leukemia = system: K-562 leukemia
KM12 colon = system: KM12 colon
LOX IMVI melanoma = system: LOX IMVI melanoma
M14 melanoma = system: M14 melanoma
MALME-3M melanoma = system: MALME-3M melanoma
MCF7 breast = system: MCF7 breast
MDA-MB-231 breast = system: MDA-MB-231 breast
MDA-MB-435 = system: MDA-MB-435
MDA-N = system: MDA-N
MOLT-4 leukemia = system: MOLT-4 leukemia
NCI-H226 lung = system: NCI-H226 lung
NCI-H23 lung = system: NCI-H23 lung
NCI-H460 lung = system: NCI-H460 lung
NCI-H522 lung = system: NCI-H522 lung
NCI/ADR-RES ovarian = system: NCI/ADR-RES ovarian
OVCAR-3 ovarian = system: OVCAR-3 ovarian
OVCAR-4 ovarian = system: OVCAR-4 ovarian
OVCAR-5 ovarian = system: OVCAR-5 ovarian
OVCAR-8 ovarian = system: OVCAR-8 ovarian
PC-3 prostate = system: PC-3 prostate
RPMI-8226 leukemia = system: RPMI-8226 leukemia
RXF 393 renal = system: RXF 393 renal
SF-268 CNS = system: SF-268 CNS
SF-295 CNS = system: SF-295 CNS
SF-539 CNS = system: SF-539 CNS
SK-MEL-2 melanoma = system: SK-MEL-2 melanoma
SK-MEL-28 melanoma = system: SK-MEL-28 melanoma
SK-MEL-5 melanoma = system: SK-MEL-5 melanoma
SK-OV-3 ovarian = system: SK-OV-3 ovarian
SN12C renal = system: SN12C renal
SNB-19 CNS = system: SNB-19 CNS
SNB-75 CNS = system: SNB-75 CNS
SR leukemia = system: SR leukemia
SW-620 colon = system: SW-620 colon
T-47D breast = system: T-47D breast
TK-10 renal = system: TK-10 renal
U251 CNS = system: U251 CNS
UACC-257 melanoma = system: UACC-257 melanoma
UACC-62 melanoma = system: UACC-62 melanoma
UO-31 renal = system: UO-31 renal

With `COC(O)C12OC3CO[Si](C(C)C)(C(C)C)O[Si](C(C)C)(C(C)C)OC3C1Oc1nc(=O)ccn12` (configuration not stated) the TGI (786-0 renal) was 31.1 µM, the TGI (A498 renal) was 32.9 µM and the TGI (A549 NSCLC) was 26.1 µM. It also gave a TGI (ACHN renal) of 27.5 µM, a TGI (BT-549 breast) of 29.3 µM and a TGI (CAKI-1 renal) of 33.7 µM. It also gave a TGI (CCRF-CEM leukemia) of 18.5 µM, a TGI (COLO 205 colon) of 27.3 µM and a TGI (DU-145 prostate) of 30.6 µM. The TGI (EKVX NSCLC) was 28.7 µM, the TGI (HCC-2998 colon) was 14.9 µM and the TGI (HCT-116 colon) was 21.8 µM. For the same compound, the TGI (HCT-15 colon) was 30.9 µM, the TGI (HL-60(TB) leukemia) was 13.2 µM and the TGI (HOP-62 NSCLC) was 26.9 µM. The TGI (HOP-92 NSCLC) was 22 µM, the TGI (HS 578T breast) was 19.5 µM and the TGI (HT29 colon) was 20.5 µM. For the same compound, the TGI (IGROV1 ovarian) was 25.6 µM, the TGI (K-562 leukemia) was 64.9 µM and the TGI (KM12 colon) was 19 µM. For the same compound, the TGI (LOX IMVI melanoma) was 27.9 µM, the TGI (M14 melanoma) was 25.3 µM and the TGI (MALME-3M melanoma) was 26.9 µM. It also gave a TGI (MCF7 breast) of 24.8 µM, a TGI (MDA-MB-231 breast) of 34 µM and a TGI (MDA-MB-435) of 26.7 µM. The TGI (MDA-N) was 26.7 µM, the TGI (MOLT-4 leukemia) was 5.78 µM and the TGI (NCI-H226 lung) was 33.9 µM. The TGI (NCI-H23 lung) was 28.4 µM, the TGI (NCI-H460 lung) was 23.4 µM and the TGI (NCI-H522 lung) was 18.3 µM. For the same compound, the TGI (NCI/ADR-RES ovarian) was 50.6 µM, the TGI (OVCAR-3 ovarian) was 23.5 µM and the TGI (OVCAR-4 ovarian) was 28 µM. It also gave a TGI (OVCAR-5 ovarian) of 29.1 µM, a TGI (OVCAR-8 ovarian) of 24.6 µM and a TGI (PC-3 prostate) of 17 µM. For the same compound, the TGI (RPMI-8226 leukemia) was 3.51 µM, the TGI (RXF 393 renal) was 24.6 µM and the TGI (SF-268 CNS) was 26.4 µM. The TGI (SF-295 CNS) was 24.8 µM, the TGI (SF-539 CNS) was 29.3 µM and the TGI (SK-MEL-2 melanoma) was 25.1 µM. The TGI (SK-MEL-28 melanoma) was greater than 100 µM, the TGI (SK-MEL-5 melanoma) was 21.1 µM and the TGI (SK-OV-3 ovarian) was 31.6 µM. The TGI (SN12C renal) was 27.8 µM, the TGI (SNB-19 CNS) was 28.9 µM and the TGI (SNB-75 CNS) was 41.3 µM. The TGI (SR leukemia) was 6.98 µM, the TGI (SW-620 colon) was greater than 52.7 µM and the TGI (T-47D breast) was 24.1 µM. The TGI (TK-10 renal) was 28.7 µM, the TGI (U251 CNS) was greater than 48.3 µM and the TGI (UACC-257 melanoma) was 24.3 µM. It also gave a TGI (UACC-62 melanoma) of 23.4 µM and a TGI (UO-31 renal) of 29.3 µM.
Work on `COC(=O)C1=C(C)NC(C)=C(C(=O)OC)C1c1ccc(NO)cc1` yielded a TGI (786-0 renal) of 28.9 µM, a TGI (A498 renal) of 93.8 µM and a TGI (A549 NSCLC) of 43.5 µM. It also gave a TGI (ACHN renal) of 25.8 µM, a TGI (BT-549 breast) of 26.5 µM and a TGI (CAKI-1 renal) of 29.1 µM. It also gave a TGI (CCRF-CEM leukemia) greater than 27.3 µM, a TGI (COLO 205 colon) of 29.2 µM and a TGI (DU-145 prostate) of 35.8 µM. The TGI (EKVX NSCLC) was 47.4 µM, the TGI (HCC-2998 colon) was 35.1 µM and the TGI (HCT-116 colon) was 21.8 µM. The TGI (HCT-15 colon) was 26.5 µM, the TGI (HL-60(TB) leukemia) was greater than 20.2 µM and the TGI (HOP-62 NSCLC) was 32.9 µM. The TGI (HOP-92 NSCLC) was 12.7 µM, the TGI (HS 578T breast) was 47.3 µM and the TGI (HT29 colon) was 29.8 µM. The TGI (IGROV1 ovarian) was 30.9 µM, the TGI (K-562 leukemia) was 8.07 µM and the TGI (KM12 colon) was 31.6 µM. The TGI (LOX IMVI melanoma) was 12.9 µM, the TGI (M14 melanoma) was 27.9 µM and the TGI (MALME-3M melanoma) was 25.8 µM. For the same compound, the TGI (MCF7 breast) was 19.2 µM, the TGI (MDA-MB-231 breast) was 26.6 µM and the TGI (MDA-MB-435) was 28.7 µM. It also gave a TGI (MDA-N) of 24.7 µM, a TGI (MOLT-4 leukemia) greater than 22.4 µM and a TGI (NCI-H226 lung) of 47.1 µM. It also gave a TGI (NCI-H23 lung) of 49.8 µM, a TGI (NCI-H460 lung) of 33.9 µM and a TGI (NCI-H522 lung) of 12.2 µM. For the same compound, the TGI (NCI/ADR-RES ovarian) was 48.5 µM, the TGI (OVCAR-3 ovarian) was 26.7 µM and the TGI (OVCAR-4 ovarian) was 25 µM. The TGI (OVCAR-5 ovarian) was 29.8 µM, the TGI (OVCAR-8 ovarian) was 24.7 µM and the TGI (PC-3 prostate) was 26.3 µM. The TGI (RPMI-8226 leukemia) was 16.4 µM, the TGI (RXF 393 renal) was 36 µM and the TGI (SF-268 CNS) was 43.1 µM. For the same compound, the TGI (SF-295 CNS) was 33.1 µM, the TGI (SF-539 CNS) was 29.6 µM and the TGI (SK-MEL-2 melanoma) was 34.2 µM. It also gave a TGI (SK-MEL-28 melanoma) of 34.1 µM, a TGI (SK-MEL-5 melanoma) of 30.1 µM and a TGI (SK-OV-3 ovarian) of 50.3 µM. The TGI (SN12C renal) was 33.6 µM, the TGI (SNB-19 CNS) was greater than 78.8 µM and the TGI (SNB-75 CNS) was 45.8 µM. It also gave a TGI (SR leukemia) greater than 20.4 µM, a TGI (SW-620 colon) of 19.8 µM and a TGI (T-47D breast) of 32.7 µM. For the same compound, the TGI (TK-10 renal) was 30.9 µM, the TGI (U251 CNS) was 29.9 µM and the TGI (UACC-257 melanoma) was 15.7 µM. The TGI (UACC-62 melanoma) was 26.8 µM and the TGI (UO-31 renal) was 23.5 µM.
`O=C1C[C@H](Sc2ccccc2)C2(OCCO2)[C@H]2ON3CCC[C@@H]3[C@@H]12` gave a TGI (786-0 renal) of 4.98 µM, a TGI (A498 renal) of 27.9 µM and a TGI (A549 NSCLC) of 13 µM. It also gave a TGI (ACHN renal) of 5.55 µM, a TGI (BT-549 breast) of 16.2 µM and a TGI (CAKI-1 renal) of 7.13 µM. For the same compound, the TGI (CCRF-CEM leukemia) was 0.829 µM, the TGI (COLO 205 colon) was 5.31 µM and the TGI (DU-145 prostate) was 6.95 µM. For the same compound, the TGI (EKVX NSCLC) was 9.64 µM, the TGI (HCC-2998 colon) was 6.69 µM and the TGI (HCT-116 colon) was 2.88 µM. The TGI (HCT-15 colon) was 4.42 µM, the TGI (HL-60(TB) leukemia) was 3.67 µM and the TGI (HOP-62 NSCLC) was 5.29 µM. For the same compound, the TGI (HOP-92 NSCLC) was 3.92 µM, the TGI (HS 578T breast) was greater than 39 µM and the TGI (HT29 colon) was 2.81 µM. It also gave a TGI (IGROV1 ovarian) of 2.46 µM, a TGI (K-562 leukemia) of 8.11 µM and a TGI (KM12 colon) of 2.87 µM. For the same compound, the TGI (LOX IMVI melanoma) was 3.05 µM, the TGI (M14 melanoma) was 7.19 µM and the TGI (MALME-3M melanoma) was 4.01 µM. It also gave a TGI (MCF7 breast) of 3.16 µM, a TGI (MDA-MB-231 breast) of 10.9 µM and a TGI (MDA-MB-435) of 3.9 µM. The TGI (MDA-N) was 13.3 µM, the TGI (MOLT-4 leukemia) was 1.85 µM and the TGI (NCI-H226 lung) was 26.7 µM. For the same compound, the TGI (NCI-H23 lung) was 7.12 µM, the TGI (NCI-H460 lung) was 9.55 µM and the TGI (NCI-H522 lung) was 2.08 µM. The TGI (NCI/ADR-RES ovarian) was 30.8 µM, the TGI (OVCAR-3 ovarian) was 2.75 µM and the TGI (OVCAR-4 ovarian) was 9.14 µM. The TGI (OVCAR-5 ovarian) was 7.8 µM, the TGI (OVCAR-8 ovarian) was 11.5 µM and the TGI (PC-3 prostate) was 13 µM. It also gave a TGI (RPMI-8226 leukemia) of 1.33 µM, a TGI (RXF 393 renal) of 11 µM and a TGI (SF-268 CNS) of 7.25 µM. The TGI (SF-295 CNS) was 14.4 µM, the TGI (SF-539 CNS) was 7.9 µM and the TGI (SK-MEL-2 melanoma) was 13.8 µM. It also gave a TGI (SK-MEL-28 melanoma) of 7.55 µM, a TGI (SK-MEL-5 melanoma) of 21.6 µM and a TGI (SK-OV-3 ovarian) of 11.4 µM. It also gave a TGI (SN12C renal) of 6.29 µM, a TGI (SNB-19 CNS) of 19.6 µM and a TGI (SNB-75 CNS) of 11.5 µM. The TGI (SR leukemia) was 1.95 µM, the TGI (SW-620 colon) was 5.82 µM and the TGI (T-47D breast) was 7.17 µM. For the same compound, the TGI (TK-10 renal) was 13.3 µM, the TGI (U251 CNS) was 6.66 µM and the TGI (UACC-257 melanoma) was 8.71 µM. The TGI (UACC-62 melanoma) was 3.77 µM and the TGI (UO-31 renal) was 3.61 µM.
